Test results from ChEMBL document CHEMBL4420075, “Seriniquinones, melanoma-specific anticancer agents” (2016).
Activity calls are given as the source filed them. The calls are words filed in the database; no cut-off is given here.

Assays:
SW-620 = test: Growth inhibition of human SW620 cells assessed as cell growth incubated for 48 hrs by sulforhodamine B assay; assay type: functional; parameters: concentration or dose not given beside the values
SNB-19 = test: Growth inhibition of human SNB19 cells assessed as cell growth incubated for 48 hrs by sulforhodamine B assay; assay type: functional; parameters: concentration or dose not given beside the values
COLO 205 = test: Growth inhibition of human COLO205 cells assessed as cell growth incubated for 48 hrs by sulforhodamine B assay; assay type: functional; parameters: concentration or dose not given beside the values
SK-MEL-28 = test: Growth inhibition of human SK-MEL-28 cells assessed as cell growth incubated for 48 hrs by sulforhodamine B assay; assay type: functional; parameters: concentration or dose not given beside the values
HCC 2998 = test: Growth inhibition of human HCC2998 cells assessed as cell growth incubated for 48 hrs by sulforhodamine B assay; assay type: functional; parameters: concentration or dose not given beside the values
T47D = test: Growth inhibition of human T47D cells assessed as cell growth incubated for 48 hrs by sulforhodamine B assay; assay type: functional; parameters: concentration or dose not given beside the values
HOP-92 = test: Growth inhibition of human HOP92 cells assessed as cell growth incubated for 48 hrs by sulforhodamine B assay; assay type: functional; parameters: concentration or dose not given beside the values
NCI-H460 = test: Growth inhibition of human NCI-H460 cells assessed as cell growth incubated for 48 hrs by sulforhodamine B assay; assay type: functional; parameters: concentration or dose not given beside the values
TK-10 = test: Growth inhibition of human TK10 cells assessed as cell growth incubated for 48 hrs by sulforhodamine B assay; assay type: functional; parameters: concentration or dose not given beside the values
CCRF-CEM = test: Growth inhibition of human CCRF-CEM cells assessed as cell growth incubated for 48 hrs by sulforhodamine B assay; assay type: functional; parameters: concentration or dose not given beside the values
OVCAR-5 = test: Growth inhibition of human OVCAR5 cells assessed as cell growth incubated for 48 hrs by sulforhodamine B assay; assay type: functional; parameters: scale not given: the % may be the effect or the level left
MDA-MB-231 = test: Growth inhibition of human MDA-MB-231 cells assessed as cell growth incubated for 48 hrs by sulforhodamine B assay; assay type: functional; parameters: concentration or dose not given beside the values
A498 = test: Growth inhibition of human A498 cells assessed as cell growth incubated for 48 hrs by sulforhodamine B assay; assay type: functional; parameters: concentration or dose not given beside the values
SR = test: Growth inhibition of human SR cells assessed as cell growth incubated for 48 hrs by sulforhodamine B assay; assay type: functional; parameters: concentration or dose not given beside the values
LOX IMVI = test: Growth inhibition of human LOXIMVI cells assessed as cell growth incubated for 48 hrs by sulforhodamine B assay; assay type: functional; parameters: concentration or dose not given beside the values
NCI-H226 = test: Growth inhibition of human NCI-H226 cells assessed as cell growth incubated for 48 hrs by sulforhodamine B assay; assay type: functional; parameters: concentration or dose not given beside the values
U-251 = test: Growth inhibition of human U251 cells assessed as cell growth incubated for 48 hrs by sulforhodamine B assay; assay type: functional; parameters: concentration or dose not given beside the values
M14 = test: Growth inhibition of human M14 cells assessed as cell growth incubated for 48 hrs by sulforhodamine B assay; assay type: functional; parameters: concentration or dose not given beside the values
HCT-15 = test: Growth inhibition of human HCT15 cells assessed as cell growth incubated for 48 hrs by sulforhodamine B assay; assay type: functional; parameters: scale not given: the % may be the effect or the level left
MCF7 = test: Growth inhibition of human MCF7 cells assessed as cell growth incubated for 48 hrs by sulforhodamine B assay; assay type: functional; parameters: concentration or dose not given beside the values
Hs-578T = test: Growth inhibition of human Hs 578T cells assessed as cell growth incubated for 48 hrs by sulforhodamine B assay; assay type: functional; parameters: concentration or dose not given beside the values
786-0 = test: Growth inhibition of human 786-0 cells assessed as cell growth incubated for 48 hrs by sulforhodamine B assay; assay type: functional; parameters: concentration or dose not given beside the values
DU-145 = test: Growth inhibition of human DU145 cells assessed as cell growth incubated for 48 hrs by sulforhodamine B assay; assay type: functional; parameters: concentration or dose not given beside the values
HOP-62 = test: Growth inhibition of human HOP62 cells assessed as cell growth incubated for 48 hrs by sulforhodamine B assay; assay type: functional; parameters: concentration or dose not given beside the values
RPMI-8226 = test: Growth inhibition of human RPMI8226 cells assessed as cell growth incubated for 48 hrs by sulforhodamine B assay; assay type: functional; parameters: concentration or dose not given beside the values
KM12 = test: Growth inhibition of human KM12 cells assessed as cell growth incubated for 48 hrs by sulforhodamine B assay; assay type: functional; parameters: concentration or dose not given beside the values
SF-295 = test: Growth inhibition of human SF295 cells assessed as cell growth incubated for 48 hrs by sulforhodamine B assay; assay type: functional; parameters: concentration or dose not given beside the values
A549 = test: Growth inhibition of human A549/ATCC cells assessed as cell growth incubated for 48 hrs by sulforhodamine B assay; assay type: functional; parameters: concentration or dose not given beside the values
SK-MEL-2 = test: Growth inhibition of human SK-MEL-2 cells assessed as cell growth incubated for 48 hrs by sulforhodamine B assay; assay type: functional; parameters: concentration or dose not given beside the values
MOLT-4 = test: Growth inhibition of human MOLT4 cells assessed as cell growth incubated for 48 hrs by sulforhodamine B assay; assay type: functional; parameters: concentration or dose not given beside the values
ACHN = test: Growth inhibition of human ACHN cells assessed as cell growth incubated for 48 hrs by sulforhodamine B assay; assay type: functional; parameters: scale not given: the % may be the effect or the level left
NCI-H23 = test: Growth inhibition of human NCI-H23 cells assessed as cell growth incubated for 48 hrs by sulforhodamine B assay; assay type: functional; parameters: concentration or dose not given beside the values
NCI/ADR-RES = test: Growth inhibition of human NCI/ADR-RES cells assessed as cell growth incubated for 48 hrs by sulforhodamine B assay; assay type: functional; parameters: concentration or dose not given beside the values
NCI-H322M = test: Growth inhibition of human NCI-H322M cells assessed as cell growth incubated for 48 hrs by sulforhodamine B assay; assay type: functional; parameters: scale not given: the % may be the effect or the level left
UO-31 = test: Growth inhibition of human UO31 cells assessed as cell growth incubated for 48 hrs by sulforhodamine B assay; assay type: functional; parameters: concentration or dose not given beside the values
UACC-62 = test: Growth inhibition of human UACC62 cells assessed as cell growth incubated for 48 hrs by sulforhodamine B assay; assay type: functional; parameters: concentration or dose not given beside the values
OVCAR-8 = test: Growth inhibition of human OVCAR8 cells assessed as cell growth incubated for 48 hrs by sulforhodamine B assay; assay type: functional; parameters: concentration or dose not given beside the values
Malme-3M = test: Growth inhibition of human MALME-3M cells assessed as cell growth incubated for 48 hrs by sulforhodamine B assay; assay type: functional; parameters: scale not given: the % may be the effect or the level left
CAKI-1 = test: Growth inhibition of human Caki1 cells assessed as cell growth incubated for 48 hrs by sulforhodamine B assay; assay type: functional; parameters: concentration or dose not given beside the values
SF-268 = test: Growth inhibition of human SF268 cells assessed as cell growth incubated for 48 hrs by sulforhodamine B assay; assay type: functional; parameters: concentration or dose not given beside the values
SNB-75 = test: Growth inhibition of human SNB75 cells assessed as cell growth incubated for 48 hrs by sulforhodamine B assay; assay type: functional; parameters: concentration or dose not given beside the values
OVCAR-3 = test: Growth inhibition of human OVCAR3 cells assessed as cell growth incubated for 48 hrs by sulforhodamine B assay; assay type: functional; parameters: concentration or dose not given beside the values
BT-549 = test: Growth inhibition of human BT549 cells assessed as cell growth incubated for 48 hrs by sulforhodamine B assay; assay type: functional; parameters: concentration or dose not given beside the values
OVCAR-4 = test: Growth inhibition of human OVCAR4 cells assessed as cell growth incubated for 48 hrs by sulforhodamine B assay; assay type: functional; parameters: concentration or dose not given beside the values
K562 = test: Growth inhibition of human K562 cells assessed as cell growth incubated for 48 hrs by sulforhodamine B assay; assay type: functional; parameters: concentration or dose not given beside the values
MDA-MB-468 = test: Growth inhibition of human MDA-MB-468 cells assessed as cell growth incubated for 48 hrs by sulforhodamine B assay; assay type: functional; parameters: concentration or dose not given beside the values
PC-3 = test: Growth inhibition of human PC3 cells assessed as cell growth incubated for 48 hrs by sulforhodamine B assay; assay type: functional; parameters: concentration or dose not given beside the values
HCT-116 [1] = test: Growth inhibition of human HCT116 cells assessed as cell growth incubated for 48 hrs by sulforhodamine B assay; assay type: functional; parameters: concentration or dose not given beside the values
SK-MEL-5 = test: Growth inhibition of human SK-MEL-5 cells assessed as cell growth incubated for 48 hrs by sulforhodamine B assay; assay type: functional; parameters: concentration or dose not given beside the values
HL-60(TB) = test: Growth inhibition of human HL-60(TB) cells assessed as cell growth incubated for 48 hrs by sulforhodamine B assay; assay type: functional; parameters: concentration or dose not given beside the values
HT-29 = test: Growth inhibition of human HT-29 cells assessed as cell growth incubated for 48 hrs by sulforhodamine B assay; assay type: functional; parameters: concentration or dose not given beside the values
MDA-MB-435 = test: Growth inhibition of human MDA-MB-435 cells assessed as cell growth incubated for 48 hrs by sulforhodamine B assay; assay type: functional; parameters: concentration or dose not given beside the values
SN12C = test: Growth inhibition of human SN12C cells assessed as cell growth incubated for 48 hrs by sulforhodamine B assay; assay type: functional; parameters: concentration or dose not given beside the values
RXF 393 = test: Growth inhibition of human RXF393 cells assessed as cell growth incubated for 48 hrs by sulforhodamine B assay; assay type: functional; parameters: concentration or dose not given beside the values
UACC-257 = test: Growth inhibition of human UACC257 cells assessed as cell growth incubated for 48 hrs by sulforhodamine B assay; assay type: functional; parameters: concentration or dose not given beside the values
SK-OV-3 = test: Growth inhibition of human SKOV3 cells assessed as cell growth incubated for 48 hrs by sulforhodamine B assay; assay type: functional; parameters: concentration or dose not given beside the values
SF-539 = test: Growth inhibition of human SF539 cells assessed as cell growth incubated for 48 hrs by sulforhodamine B assay; assay type: functional; parameters: scale not given: the % may be the effect or the level left
NCI-H522 = test: Growth inhibition of human NCI-H522 cells assessed as cell growth incubated for 48 hrs by sulforhodamine B assay; assay type: functional; parameters: concentration or dose not given beside the values
Dermcidin (Homo sapiens) = molecular target: T1, Dermcidin (Homo sapiens) (UniProt P81605); test: Covalent binding affinity to DCD-1L (unknown origin) at 50 uM incubated for 24 hrs by denatured SDS-PAGE gel electrophoresis
T1 sequence (whole entry): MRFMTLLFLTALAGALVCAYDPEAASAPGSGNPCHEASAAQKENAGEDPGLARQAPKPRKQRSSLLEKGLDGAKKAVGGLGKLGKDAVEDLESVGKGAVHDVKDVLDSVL

HCT-116 [2] = test: Cytotoxicity in human HCT116 cells by MTT assay; assay type: functional, cell-based

NCC1CN(C(=O)CCc2ccc3c(=O)c4sc5c(=O)c6ccccc6c(=O)c5c4c(=O)c3c2)C1.O=C(O)C(F)(F)F
Activity (SW-620): -60.32%
Activity (SNB-19): -98.59%
Activity (COLO 205): -91.79%
Activity (SK-MEL-28): -96.8%
Activity (HCC 2998): -90.76%
Activity (T47D): -51.1%
Activity (HOP-92): -32.93%
Activity (NCI-H460): -52.32%
Activity (TK-10): -89.49%
Activity (CCRF-CEM): -29.57%
Activity (OVCAR-5): -85.63%
Activity (MDA-MB-231): -15.99%
Activity (A498): -87.3%
Activity (SR): -25%
Activity (LOX IMVI): -82.6%
Activity (NCI-H226): -49.62%
Activity (U-251): -92.83%
Activity (M14): -93.82%
Activity (HCT-15): -61.54%
Activity (MCF7): -58.78%
Activity (Hs-578T): 1.09%
Activity (786-0): -95.07%
Activity (DU-145): -94.41%
Activity (HOP-62): -90.94%
Activity (RPMI-8226): -39.84%
Activity (KM12): -76.76%
Activity (SF-295): -92.59%
Activity (A549): -55.33%
Activity (SK-MEL-2): -72.32%
Activity (MOLT-4): -36.2%
Activity (ACHN): -96.22%
Activity (NCI-H23): -50.82%
Activity (NCI/ADR-RES): -15.35%
Activity (NCI-H322M): -97.48%
Activity (UO-31): -96.98%
Activity (UACC-62): -88.01%
Activity (OVCAR-8): -38.88%
Activity (Malme-3M): -93.22%
Activity (CAKI-1): -78.75%
Activity (SF-268): -57.54%
Activity (SNB-75): -95.74%
Activity (OVCAR-3): -68.52%
Activity (BT-549): -96.67%
Activity (OVCAR-4): -71.07%
Activity (K562): -59.88%
Activity (MDA-MB-468): -83.65%
Activity (PC-3): -79.46%
Activity (HCT-116 [1]): -80.84%
Activity (SK-MEL-5): -98.07%
Activity (HL-60(TB)): -46.78%
Activity (HT-29): -46.19%
Activity (MDA-MB-435): -93.07%
Activity (SN12C): -69%
Activity (RXF 393): -77.25%
Activity (UACC-257): -92.08%
Activity (SK-OV-3): -97.49%
Activity (SF-539): -99.46%
Activity (NCI-H522): -72.26%

CC(C)=CCCc1ccc2c(=O)c3c(sc4c(=O)c5ccccc5c(=O)c43)c(=O)c2c1
Activity (Dermcidin (Homo sapiens)): Active

CC(=O)Oc1ccc2c(=O)c3c(sc4c(=O)c5cc(OC(C)=O)ccc5c(=O)c43)c(=O)c2c1
IC50 (HCT-116 [2]): 5800 nM

O=C(O)CCc1ccc2c(=O)c3c(sc4c(=O)c5ccccc5c(=O)c43)c(=O)c2c1
Activity (Dermcidin (Homo sapiens)): Active

CC(=O)Oc1ccc2c(=O)c3sc4c(=O)c5cc(O)ccc5c(=O)c4c3c(=O)c2c1
IC50 (HCT-116 [2]): 3500 nM

O=c1c2ccccc2c(=O)c2c1sc1c(=O)c3cc(Cl)ccc3c(=O)c12
IC50 (HCT-116 [2]): 150 nM

O=C(Nc1ccc2c(=O)c3sc4c(=O)c5ccc(NC(=O)C(F)(F)F)cc5c(=O)c4c3c(=O)c2c1)C(F)(F)F
IC50 (HCT-116 [2]): 480 nM

O=c1c2ccc(O)cc2c(=O)c2c1sc1c(=O)c3ccc(O)cc3c(=O)c12
IC50 (HCT-116 [2]): 1600 nM
